Patent US10604524B2, “Pyrropyrimidine compounds as MNKs inhibitors” (LIFEARC, priority 2015, dated 2020)

Columns and labels:
Full-length human MNK1 = Full-length human MNK1 (Homo sapiens, UniProt Q9BUB5, T385D); assay: MNK1 biochemical IC50 assay (Caliper mobility shift)
[1] = tested on: phosphorylation of eIF4E at ser209 in MV4.11 cell line; assay: cells; format: cell-based; settings: Homo sapiens; MV4.11 cells, 1.5 hr compound incubation, average of at least 2 independent experiments; read-out: plc50 elF4E (converted)
Protocol: MNK activity in cells was measured by monitoring the phosphorylation of eIF4E at ser209, the known endogenous substrate of MNK1/2, in cell lysates. […] The assay detection is based on the formation of sandwich antibody complexes coupled to donor and acceptor beads. Excitation at 680 nm causes the transfer of a singlet oxygen species between donor and acceptor beads when they are in close proximity by binding to the analyte […], which results in the emission of light at 520-620 nm.
Cells were then lysed and the Aphascreen Surefire protocol followed according to manufacturer's recommendations. 8 ul Acceptor beads (1:50 dilution in kit activation buffer) was added to lysate, shaken 150 rpm for 2 min and incubated for 1.5 hr at room temperature. 3 ul Donor beads (1:20 dilution in kit dilution buffer) were then added, shaken 150 rpm for 2 min and incubated for a further 1.5 hr at room temperature after which the plates were read on Pherastar FS using Alphascreen optic module.
Data were normalised relative to untreated DMSO only controls and curves repeated in duplicate within experiments. Data reported are averages of at least 2 independent experiments.

Full-length human MNK2 = Full-length human MNK2 (Homo sapiens, UniProt Q9HBH9, T379D); assay: MNK2 biochemical IC50 assay (Caliper mobility shift)
Sequence of Full-length human MNK2 (Q9HBH9 whole entry T379D): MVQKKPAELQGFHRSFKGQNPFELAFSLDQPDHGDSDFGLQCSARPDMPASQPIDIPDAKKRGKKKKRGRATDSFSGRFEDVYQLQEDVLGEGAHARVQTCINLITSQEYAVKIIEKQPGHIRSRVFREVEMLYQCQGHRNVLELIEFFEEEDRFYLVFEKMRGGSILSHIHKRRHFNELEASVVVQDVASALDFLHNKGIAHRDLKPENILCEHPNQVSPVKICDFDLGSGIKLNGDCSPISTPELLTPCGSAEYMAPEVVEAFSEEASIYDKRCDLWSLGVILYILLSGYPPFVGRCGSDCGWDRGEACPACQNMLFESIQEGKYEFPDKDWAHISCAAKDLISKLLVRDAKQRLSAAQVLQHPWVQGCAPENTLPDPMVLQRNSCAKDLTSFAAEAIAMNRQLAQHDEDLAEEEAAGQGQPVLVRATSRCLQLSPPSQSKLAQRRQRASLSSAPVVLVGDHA

Sequence of Full-length human MNK1 (Q9BUB5 1-424 isoform Q9BUB5-2 T344D): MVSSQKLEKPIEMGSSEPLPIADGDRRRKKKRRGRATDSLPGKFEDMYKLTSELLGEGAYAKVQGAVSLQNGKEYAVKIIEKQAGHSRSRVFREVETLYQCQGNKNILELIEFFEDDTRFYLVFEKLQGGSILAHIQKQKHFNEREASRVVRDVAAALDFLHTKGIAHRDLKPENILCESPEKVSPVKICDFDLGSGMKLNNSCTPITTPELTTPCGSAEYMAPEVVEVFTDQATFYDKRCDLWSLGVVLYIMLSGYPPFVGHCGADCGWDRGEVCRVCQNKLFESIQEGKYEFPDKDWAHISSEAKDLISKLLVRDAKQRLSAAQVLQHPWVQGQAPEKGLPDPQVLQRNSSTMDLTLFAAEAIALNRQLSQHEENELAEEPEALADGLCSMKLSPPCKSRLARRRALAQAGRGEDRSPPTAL

SMILES | IC50 (Full-length human MNK1) | IC50 [1] | IC50 (Full-length human MNK2)
CCOc1ncccc1Nc1ncnc2ccn(C)c12 [Example 34, N-(2-ethoxy-3-pyridyl)-5-methyl-pyrrolo[3,2-d]pyrimidin-4-amine] | 0.398 µM | 0.126 µM | 0.251 µM
CC(C)Oc1cc(F)ccc1Nc1ncnc2c(Cl)c(C(=O)NCCCN(C)C)n(C)c12 [Example 43, 7-Chloro-N-[3-(dimethylamino)propyl]-4-{[4-fluoro-2-(propan-2-yloxy)phenyl]amino}-5-methyl-5H-pyrrolo[3,2-d]pyrimidine-6-carboxamide] | 1.26 µM | 0.794 µM | 1 µM
CC(C)Oc1cc(F)ccc1Nc1ncnc2cc(C(=O)NCCCN(C)C)[nH]c12 [Example 44, N-[3-(dimethylamino)propyl]-4-(4-fluoro-2-isopropoxy-anilino)-5H-pyrrolo[3,2-d]pyrimidine-6-carboxamide] | 0.0794 µM | 0.0631 µM | 0.0631 µM
C[C@@H](CF)Oc1cc(F)ccc1Nc1ncnc2ccn(C)c12 [Example 22, N-[4-fluoro-2-[(1S)-2-fluoro-1-methyl-ethoxy]phenyl]-5-methyl-pyrrolo[3,2-d]pyrimidin-4-amine] | 0.1 µM | 0.0158 µM | 0.0501 µM
CC(C)Oc1cc(C#N)ccc1Nc1ncnc2ccn(C)c12 [Example 7, 3-Isopropoxy-4-[(5-methylpyrrolo[3,2-d]pyrimidin-4-yl)amino]benzonitrile] | 0.0501 µM | 0.0316 µM | 0.0251 µM
CCn1ccc2ncnc(Nc3ccc(F)cc3OC(C)C)c21 [Example 1, 5-Ethyl-N-(4-fluoro-2-isopropoxy-phenyl)pyrrolo[3,2-d]pyrimidin-4-amine] | 0.2 µM | 0.0501 µM | 0.126 µM
Cn1ccc2ncnc(Nc3ccc(F)cc3OC(CF)CF)c21 [Example 11, N-[4-fluoro-2-[2-fluoro-1-(fluoromethyl)ethoxy]phenyl]-5-methyl-pyrrolo[3,2-d]pyrimidin-4-amine] | 0.158 µM |  | 0.0501 µM
COc1ccc(Nc2ncnc3ccn(C)c23)c(OC(C)C)c1 [Example 10, N-(2-isopropoxy-4-methoxy-phenyl)-5-methyl-pyrrolo[3,2-d]pyrimidin-4-amine] | 10 µM | 0.2 µM | 1.26 µM
CO[C@@H]1CCC[C@H](Oc2cc(F)ccc2Nc2ncnc3ccn(C)c23)C1 [Example 21, N-[4-fluoro-2-[(1S,3R)-3-methoxycyclohexoxy]phenyl]-5-methyl-pyrrolo[3,2-d]pyrimidin-4-amine] | 0.158 µM | 0.0251 µM | 0.0794 µM
CCOc1cc(F)ccc1Nc1ncnc2ccn(C)c12 [Example 30, N-(2-ethoxy-4-fluoro-phenyl)-5-methyl-pyrrolo[3,2-d]pyrimidin-4-amine] | 0.2 µM | 0.0631 µM | 0.126 µM
Cn1ccc2ncnc(Nc3ccc(F)cc3O[C@H]3CC[C@H](O)CC3)c21 [Example 12, 4-[5-fluoro-2-[(5-methylpyrrolo[3,2-d]pyrimidin-4-yl)amino]phenoxy]cyclohexanol] | 0.2 µM | 0.0158 µM | 0.0794 µM
COc1ncccc1Nc1ncnc2ccn(C)c12 [Example 35, N-(2-methoxy-3-pyridyl)-5-methyl-pyrrolo[3,2-d]pyrimidin-4-amine] | 1.58 µM | 1 µM | 1.26 µM
CC(C)Oc1cc(F)ccc1Nc1ncnc2ccn(C)c12 [Example 27, N-(4-fluoro-2-isopropoxy-phenyl)-5-methyl-pyrrolo[3,2-d]pyrimidin-4-amine] | 0.126 µM | 0.02 µM | 0.0501 µM
CO[C@@H]1CCCC[C@H]1Oc1cc(F)ccc1Nc1ncnc2ccn(C)c12 [Example 38, N-[4-fluoro-2-[(1R,2R)-2-methoxycyclohexoxy]phenyl]-5-methyl-pyrrolo[3,2-d]pyrimidin-4-amine] | 2 µM | 0.0398 µM | 0.316 µM
CO[C@H]1CCC[C@@H](Oc2cc(F)ccc2Nc2ncnc3ccn(C)c23)C1 [Example 20, N-[4-fluoro-2-[(1R,3S)-3-methoxycyclohexoxy]phenyl]-5-methyl-pyrrolo[3,2-d]pyrimidin-4-amine] | 3.16 µM | 0.2 µM | 0.631 µM
CC(C)Oc1ccccc1Nc1ncnc2ccn(C)c12 [Example 28, N-(2-isopropoxyphenyl)-5-methyl-pyrrolo[3,2-d]pyrimidin-4-amine] | 0.398 µM | 0.0398 µM | 0.158 µM
COCCn1ccc2ncnc(Nc3ccc(F)cc3OC(C)C)c21 [Example 5, N-(4-fluoro-2-isopropoxy-phenyl)-5-(2-methoxyethyl)pyrrolo[3,2-d]pyrimidin-4-amine] | 3.16 µM | 1 µM | 2 µM
Cn1ccc2ncnc(Nc3ccc(F)cc3O[C@@H]3CCOC3)c21 [Example 16, N-[4-fluoro-2-[(3R)-tetrahydrofuran-3-yl]oxy-phenyl]-5-methyl-pyrrolo[3,2-d]pyrimidin-4-amine] | 0.251 µM | 0.0794 µM | 0.126 µM
CC(C)Oc1cc(F)ccc1Nc1ncnc2cc[nH]c12 [Example 45, N-(4-fluoro-2-isopropoxy-phenyl)-5H-pyrrolo[3,2-d]pyrimidin-4-amine] | 0.126 µM | 0.501 µM | 0.0794 µM
Cc1ccc(Nc2ncnc3ccn(C)c23)c(OC(C)C)c1 [Example 8, N-(2-isopropoxy-4-methyl-phenyl)-5-methyl-pyrrolo[3,2-d]pyrimidin-4-amine] | 3.16 µM | 0.501 µM | 1.26 µM
Cn1ccc2ncnc(Nc3ccc(F)cc3O[C@H]3CCCOC3)c21 [Example 19, N-[4-fluoro-2-[(3S)-tetrahydropyran-3-yl]oxy-phenyl]-5-methyl-pyrrolo[3,2-d]pyrimidin-4-amine] | 0.501 µM |  | 0.126 µM
CC(C)Oc1ncccc1Nc1ncnc2ccn(C)c12 [Example 29, N-(2-isopropoxy-3-pyridyl)-5-methyl-pyrrolo[3,2-d]pyrimidin-4-amine] | 0.251 µM | 0.0501 µM | 0.1 µM
Cn1ccc2ncnc(Nc3ccc(F)cc3O[C@H]3CCOC3)c21 [Example 15, N-[4-fluoro-2-[(3S)-tetrahydrofuran-3-yl]oxy-phenyl]-5-methyl-pyrrolo[3,2-d]pyrimidin-4-amine] | 0.398 µM | 0.0316 µM | 0.158 µM
Fc1ccc2c(c1)CCN2c1ncnc2cc[nH]c12 [Example 46, 4-(5-Fluoroindolin-1-yl)-5H-pyrrolo[3,2-d]pyrimidine] | 0.0398 µM |  | 0.0316 µM
Cn1ccc2ncnc(Nc3ccc(F)cc3OC3CCCC3)c21 [Example 25, N-[2-(cyclopentyloxy)-4-fluorophenyl]-5-methyl-5H-pyrrolo[3,2-d]pyrimidin-4-amine] | 0.126 µM |  | 0.0316 µM
Cn1ccc2ncnc(Nc3ccc(F)cc3O[C@@H]3CCCOC3)c21 [Example 18, N-[4-fluoro-2-[(3R)-tetrahydropyran-3-yl]oxy-phenyl]-5-methyl-pyrrolo[3,2-d]pyrimidin-4-amine] | 0.0631 µM |  | 0.0316 µM
CC(C)Oc1cc(F)ccc1Nc1ncnc2cc(C(=O)NCC3CCNCC3)n(C)c12 [Example 41, 4-{[4-Fluoro-2-(propan-2-yloxy)phonyl]amino}-5-methyl-N-(piperidin-4-ylmethyl)-5H-pyrrolo[3,2-d]pyrimidine-6-carboxamide] | 0.0398 µM |  | 0.0398 µM
